# Source: patent US10450615B2, “Methods and compositions for detecting gastrointestinal and other cancers” (Case Western Reserve University, priority 2003, dated 2019)
# Test system: vimentin gene expression in colon cancer cell lines
# Assay: RT-PCR of vimentin expression in colon cancer cell lines after 5-azacytidine treatment
# Assay type: cell-based, human
# Conditions: FIG. 2, cell lines with vimentin DNA methylation, optimal tolerated doses ranging from 1 μg/ml to 3 μg/ml, reactivated in V400, V429, V503, RCA, V5, RKO, V432, V703, V457
# Description: The cultures were grown and treated as described previously (Veigl, et al., 1998, Proc. Natl. Acad. Sci. USA, 95:8698-8702). The optimal tolerated doses were determined for each treated line, and two doses were used for some lines, ranging from 1 μg/ml to 3 μg/ml.
# To establish that methylation was responsible for silencing vimentin gene expression, cell lines with vimentin DNA methylation were treated with 5-azacytidine (5-azaC), a demethylating agent.
smiles,measurement,value
"Nc1ncn([C@@H]2O[C@H](CO)[C@@H](O)[C@H]2O)c(=O)n1 [5-azaC, 5-azacytidine]",colon cancer cell lines in which vimentin expression was reactivated (induced),9 of 12
